The text below walks through data of paper PMC4972714 (Bioorganic & medicinal chemistry, 2016).

Assay [1] deals with HIV-1 NL4-3 in U87-CD4/CXCR4 cells. Kind of assay: Viral replication assay, p24 read-out. The assay is classed as cell-based. Conditions: 10 µM, infection over several days, NL4-3 in U87-CD4/CXCR4 cells (Fig. 1A).
Assay [2] has as its system HIV-1 RRE IIB RNA. Kind of assay: Dot blot assay, binding to RRE IIB RNA. Conditions: dot blot Kd relative to BPBA3.
Assay [3] addresses HIV-1 RRE IIB RNA. Conditions: native Rev protein with RRE; ref [26], [58]; cited from earlier work.

For the compound `Nc1ccn([C@@H]2CS[C@H](CO)O2)c(=O)n1` [3TC, 2′,3′-dideoxy-3′-thiacytidine], in assay [1], the “HIV-1 replication screening, p24 expression” value (“HIV-1 replication screening” below) was “completely abolished p24 expression”.

In the case of `Cc1cn([C@H]2C[C@H](N=[N+]=[N-])[C@@H](CO)O2)c(=O)[nH]c1=O` [AZT, azidothymidine], the “HIV-1 replication screening” value in assay [1] was “completely abolished p24 expression”.

Regarding Elvitegravir, the “HIV-1 replication screening” value in assay [1] is recorded as “completely abolished p24 expression”.

Turning to FBPAYFBPA*NKSY [LBPBA3A], in the assay on HIV-1 RRE IIB RNA [2], the “loss in binding affinity towards RRE IIB versus BPBA3” value was determined as 2 fold.

In the case of FBPAYFBPAFBPAYFBPA*NKSY [LBPBA3B], the “loss in binding affinity towards RRE IIB versus BPBA3” value in the assay with HIV-1 RRE IIB RNA [2] is 3 fold.

In the case of Raltegravir, the “HIV-1 replication screening” value in assay [1] is listed as “completely abolished p24 expression”.

Regarding “Rev protein: native HIV-1 Rev protein that binds RRE”, the “dissociation constant with RRE” value on HIV-1 RRE IIB RNA [3] is recorded as “low nanomolar range”.
